Assay results as given in publication PMC12406255, “Engineering Peptide Modulators for T‑Cell Migration by Structural Scaffold Matching” (Journal of Medicinal Chemistry, 2025).
Where two headings read alike, the source gives them in different places. Positions of bridges follow the written chain, without caps; N, C: chain ends. Non-standard residues stand in square brackets, D forms with d. Residues, ends and D or L forms follow the SMILES beside them. Nle = CCCC[C@H](N)C(=O)O

Assays:
[1] = tested on: CD8+ lymphocytes (CD3+, CD8+); type: cell-based, human; details: normalized to untreated control, mean ± SEM of 4-6 experiments
Protocol: (§1) Transwell migration assays were performed similarly as published previously. HMEC-1 cells were seeded at a density of 75,000 cells per well in transwell inserts. Three days after cell seeding, the medium was changed, and the cells were stimulated with 100 ng/mL TNF-α and 20 ng/mL IFN-γ for 16–18 h. On the day of the assay, cells were washed with migration medium (serum-free RPMI medium supplemented with 0.1% BSA) to remove residual cytokines and starved for at least 1 h at 37 °C in migration medium. PBMC were starved for at least 1.5 h in migration medium before addition to the EC. For S1P and lifitegrast-treated samples, the PBMC were preincubated for at least 1.5 h at 37 °C with the ligands before addition to the EC. Pepitem and other peptides were added onto the EC monolayer and preincubated for 15–30 min at 37 °C before the addition of the PBMC. 200,000 PBMC per well were added directly on top of the EC prestimulated with pepitem or other peptides to reach a final volume of 150 μL in the donor compartments. The receiver compartments of the wells were filled with 600 μL RPMI with 20% FBS. After 4 h of migration at 37 °C, the receiver compartment with the migrated cells was collected. The migrated cells were stained with the indicated antibodies: CD3-APC (clone: OKT3, lot: B400127), CD4-PE (clone: OKT4. lot: B379180), CD8-FITC (clone: HIT8a, lot: B370193) from Biolegend and CD3-VioGreen (clone: REA613, lot: 5240502518), CD45RO-FITC (clone: REA611, lot: 5240502519), CD4-PerCP-Vio700 (clone: REA623, lot: 5240506702), CXCR3 PE-Vio615 (clone: REA232, lot: 5240506722), CD196-APC (clone: REA190, lot: 5240506717), CD8-APC-Vio770 (clone: REA734, lot: 5240303993) and CD45RO-PEVio616 (clone: REA611, lot: 5231102514) from Miltenyi Biotec (Bergisch Gladbach, Germany) and counted using precision counting beads (Biolegend) on a CytoflexS flow cytometer (BeckmanCoulter). Data was analyzed using CytExpert (Version 2.4). T cells were gated as CD3^+ cells, T cell subsets were gated as CD4^+ (CD3^+, CD4^+), CD8^+ (CD3^+, CD8^+), memory CD4^+ (CD3^+, CD4^+, CD45RO^+), memory CD8^+ (CD3^+, CD8^+, CD45RO^+) and Th1 cells (CD3^+, CD4^+, CXCR3^+, CCR6^–).
(§2) Data were analyzed using GraphPad Prism software. EC50 values were calculated by three-parameter nonlinear regression analysis. For this, the data points were normalized to the number of migrated cells in untreated (buffer) control samples (100%), and the regression was fitted with the top constraint to 100 and the slope fixed to 1. Statistical significance is indicated in graphs as n.s. not significant, * p < 0.05; ** p < 0.01; *** p < 0.001. The statistical tests used are indicated in the respective figure captions.

[2] = tested on: memory CD8+ cells (CD3+, CD8+, CD45RO+); type: cell-based, human; details: normalized to untreated control, mean ± SEM of 4-6 experiments
Protocol: as §1, §2

[3] = tested on: memory CD4+ cells (CD3+, CD4+, CD45RO+); type: cell-based, human; details: normalized to untreated control, mean ± SEM of 4-6 experiments
Protocol: as §1, §2

[4] = tested on: CD4+ lymphocytes (CD3+, CD4+); type: cell-based, human; details: normalized to untreated control, mean ± SEM of 4-6 experiments
Protocol: as §1, §2

Serum stability assay = type: in vitro ADME; details: human serum of healthy donors, lipids removed by centrifugation, 37 °C, peptide 30-60 μM from 10-fold stock in PBS, followed over 48 h, urea/TFA quench, analytical RP-HPLC peak area vs time 0, one-phase decay fit; mean ± SD, n = 2 (pepitem n = 5); read-out: Serum t 1/2 (converted)
Protocol: Stability of peptides in human serum was measured similarly to that previously described. In short, fresh blood from healthy donors was collected in serum collection tubes (Clot Activator Tube, Becton Dickinson, Plymouth, United Kingdom, […]) and incubated at 4 °C for 2 h to allow blood clotting. The serum was separated by centrifugation at 1000 × g for 10 min. To remove lipids from the serum, an additional centrifugation step was performed at 15,000 × g for 15 min at 4 °C, after which the serum was used for the stability assays. For this, the serum was prewarmed for 10 min at 37 °C before the addition of the test compounds. Peptides were prepared at a 10-fold concentration in PBS and diluted to a final concentration between 60 and 30 μM with the serum. The serum-peptide reaction mix was incubated at 37 °C, and 40 μL aliquots were taken at the indicated time points. To stop the reaction, samples were mixed with 40 μL of 6 M urea for 10 min on ice, followed by precipitation of serum proteins by the addition of 40 μL of 20% TFA and incubation for at least 10 min on ice. The precipitate was pelleted at 15,000 × g for 15 min, and 90 μL of the supernatant was freeze-dried. The dry material was resuspended in HPLC solvent A (0.1% TFA in ddH2O). Peptide quantification was performed using analytical HPLC. The remaining peptide relative to the starting point (time point 0) was calculated by peak integration to determine the area under the peak at the designated time points and further calculated in comparison to time point 0 min, which was set as 100%. To calculate the half-life of the peptides in human serum, data points were fitted with a one-phase decay equation.

CD3+ lymphocytes = assay: cells; type: cell-based, human; details: for % Inhibition of cell migration compared to control, CD3+: normalized to untreated control, mean ± SEM of 4-6 experiments
Protocol: 1 Transwell-based migration assay to study lymphocyte transendothelial migration. (A) The general principle of the transwell migration assay is depicted. Endothelial cells (EC) are seeded in transwell inserts and are incubated for 2 days to form an EC monolayer. On the day before the assay, the ECs are cytokine-stimulated to induce the expression of adhesion molecules. In the migration assay, human peripheral blood mononuclear cells (PBMC) are placed into the donor compartment of the transwell setup. After 4 h of incubation time, the migrated cells are harvested from the receiver compartment, stained with fluorescent antibodies and counted using flow cytometry. (B) PBMCs were preincubated with S1P for 1.5 h and then transferred into the donor compartment on top of the EC monolayer. […] Data are shown as mean ± SD of 3 to 5 independent experiments.
as §1, §2

| SMILES | % Inhibition of cell migration compared to control, CD8+ ([1]; 0.1 μM) [%] | % Inhibition of cell migration compared to control, CD8+ ([1]; 1 μM) | % Inhibition of cell migration compared to control, Memory CD8+ ([2]; 0.1 μM) [%] | % Inhibition of cell migration compared to control, Memory CD8+ ([2]; 1 μM) | % Inhibition of cell migration compared to control, Memory CD4+ ([3]; 0.1 μM) | % Inhibition of cell migration compared to control, Memory CD4+ ([3]; 1 μM) | % Inhibition of cell migration compared to control, CD4+ ([4]; 0.1 μM) | % Inhibition of cell migration compared to control, CD4+ ([4]; 1 μM) | half-life (Serum stability assay) [h] | % Inhibition of cell migration compared to control, CD3+ (CD3+ lymphocytes; 0.1 μM) | % Inhibition of cell migration compared to control, CD3+ (CD3+ lymphocytes; 1 μM) | effects on T-lymphocyte migration (in words) (CD3+ lymphocytes; two concentrations (0.1 and 1 μM), equal to untreated control) |
| --- | --- | --- | --- | --- | --- | --- | --- | --- | --- | --- | --- | --- |
| CCCC[C@@H]1NC(=O)[C@H](C(C)C)NC(=O)[C@H](CCCCN)NC(=O)[C@@H](NC(=O)[C@H](CCC(N)=O)NC(=O)[C@H](CCC(=O)O)NC(C)=O)CSSC[C@@H](C(=O)N[C@@H](CCC(=O)O)C(=O)N[C@@H](CCCCN)C(N)=O)NC(=O)[C@H](CC(N)=O)NC(=O)[C@H](CC(=O)O)NC(=O)[C@H](CC(C)C)NC(=O)[C@@H]2CSSC[C@H](NC1=O)C(=O)N[C@@H](Cc1ccc(O)cc1)C(=O)N[C@@H](CCC(=O)O)C(=O)N[C@@H](CCC(N)=O)C(=O)NCC(=O)N[C@@H](C)C(=O)N[C@@H](CC(C)C)C(=O)N[C@@H](CO)C(=O)N1CCC[C@H]1C(=O)N[C@@H](CCC(=O)O)C(=O)N[C@@H](CC(C)C)C(=O)N[C@@H](CC(C)C)C(=O)N[C@@H](CCCNC(=N)N)C(=O)N[C@@H](CCCNC(=N)N)C(=O)N2 [VhTI-pep 5] (Ac-EQCKV[Nle]CYEQGALSPELLRRCLDNCEK-NH2; disulfide 3-25, 7-21) | 20.8 ± 6.8 | 24.8 ± 12.8% | 4.7 ± 10.1 | 14.0 ± 13.4% | 11.5 ± 13.6% | 28.6 ± 8.8% | 16.2 ± 7.7% | 33.5 ± 5.7% | > 48 | 18.0 ± 6.2% | 28.4 ± 7.4% |  |
| CC(=O)N[C@@H](CCC(=O)O)C(=O)N[C@@H](CCC(N)=O)C(=O)N[C@H]1CSSC[C@@H](C(=O)N[C@@H](CCC(=O)O)C(=O)N[C@@H](CCCCN)C(N)=O)NC(=O)[C@H](CC(N)=O)NC(=O)[C@H](CC(=O)O)NC(=O)[C@H](CC(C)C)NC(=O)[C@@H]2CSSC[C@H](NC(=O)[C@H]([C@@H](C)O)NC(=O)[C@H](C(C)C)NC(=O)[C@H](CO)NC1=O)C(=O)N[C@@H](CCC(=O)O)C(=O)N[C@@H](CCC(N)=O)C(=O)NCC(=O)N[C@@H](C)C(=O)N[C@@H](CCC(=O)O)C(=O)N[C@@H](CC(C)C)C(=O)N1CCC[C@H]1C(=O)N[C@@H](CO)C(=O)N[C@@H](CC(N)=O)C(=O)N[C@@H](CCC(=O)O)C(=O)N[C@@H](CCC(=O)O)C(=O)N[C@@H](CCCNC(=N)N)C(=O)N2 [VhTI-pep 6] (Ac-EQCSVTCEQGAELPSNEERCLDNCEK-NH2; disulfide 3-24, 7-20) | 28.0 ± 8.2 | 1.6 ± 7.8% | 23.2 ± 4.3 | 0.6 ± 6.1% | 24.6 ± 11.6% | 14.7 ± 7.6% | 19.5 ± 9.9% | 14.6 ± 8.7% | 25.8 ± 9.7 | 27.0 ± 9.7% | 14.9 ± 11.6% |  |
| CCCC[C@@H]1NC(=O)[C@H](C(C)C)NC(=O)[C@H](CCCCN)NC(=O)[C@@H](NC(=O)[C@H](CCC(N)=O)NC(=O)[C@H](CCC(=O)O)NC(C)=O)CSSC[C@@H](C(=O)N[C@@H](CCC(=O)O)C(=O)N[C@@H](CCCCN)C(N)=O)NC(=O)[C@H](CC(N)=O)NC(=O)[C@H](CC(=O)O)NC(=O)[C@H](CC(C)C)NC(=O)[C@@H]2CSSC[C@H](NC1=O)C(=O)N[C@@H](Cc1ccc(O)cc1)C(=O)N[C@@H](C)C(=O)N[C@@H](CCC(N)=O)C(=O)N[C@@H](CCCNC(=N)N)C(=O)N[C@@H](Cc1c[nH]cn1)C(=O)N[C@@H](CO)C(=O)N[C@@H](CO)C(=O)N1CCC[C@H]1C(=O)N[C@@H](CCC(=O)O)C(=O)N[C@@H](CC(C)C)C(=O)N[C@@H](CC(C)C)C(=O)N[C@@H](CCCNC(=N)N)C(=O)N[C@@H](CCCNC(=N)N)C(=O)N2 [VhTI variant, reference compound] (Ac-EQCKV[Nle]CYAQRHSSPELLRRCLDNCEK-NH2; disulfide 3-25, 7-21) | 1.6 ± 8.5 | –2.8 ± 15.8% | 4.7 ± 7.4 | –11.6 ± 7.2% | –3.5 ± 2.4% | –11.6 ± 13.2% | –7.8 ± 9.4% | –6.7 ± 7.0% | 15.4 ± 12.9 | –3.9 ± 7.0% | –5.2 ± 10.7% | no effects |
